{"source": "ChEMBL document CHEMBL4270561", "about": "“Biological activity of doubly modified salinomycin analogs - Evaluation in vitro and ex vivo” (Eur J Med Chem, 2018)", "key": {"[1]": {"system": "MCF-10A", "assay": "Antiproliferative activity against human MCF10A cells at 100 ug/ml after 72 hrs by SRB assay relative to control", "format": "cell-based"}, "[2]": {"system": "JIMT-1", "assay": "Antiproliferative activity against human JIMT1 cells at 100 ug/ml after 72 hrs by SRB assay relative to control", "format": "functional"}, "[3]": {"assay": "Antiproliferative activity against human LoVo/DX cells at 100 ug/ml after 72 hrs by SRB assay relative to control", "format": "functional"}, "[4]": {"system": "LoVo", "assay": "Antiproliferative activity against human LoVo cells at 100 ug/ml after 72 hrs by SRB assay relative to control", "format": "functional"}, "[5]": {"system": "MCF7", "assay": "Antiproliferative activity against human MCF7 cells after 72 hrs by SRB assay", "format": "functional, cell-based", "conditions": "MCF7, 72 h"}, "[6]": {"system": "SK-BR-3", "assay": "Antiproliferative activity against human SK-BR-3 cells at 100 ug/ml after 72 hrs by SRB assay relative to control", "format": "functional"}, "[7]": {"assay": "Antiproliferative activity against human ALL5 cells at 10 uM after 120 hrs by MTT assay relative to control", "format": "functional"}, "[8]": {"assay": "Cell cycle arrest in human ALL5 cells assessed as accumulation at S-phase at 5 times antiproliferative IC50 after 96 hrs by propidium iodide staining based flow cytometry (reference value: 7.52%)", "format": "functional"}, "[9]": {"assay": "Cell cycle arrest in human ALL5 cells assessed as accumulation at sub-G1 phase at 5 times antiproliferative IC50 after 96 hrs by propidium iodide staining based flow cytometry (reference value: 12%)", "format": "functional"}, "[10]": {"assay": "Selectivity index, ratio of IC50 for human MCF10A cells to IC50 for human ALL5 cells", "format": "toxicity", "conditions": "MCF10A cells versus ALL5 cells, read-out: Ratio IC50"}, "[11]": {"assay": "Cell cycle arrest in human ALL5 cells assessed as accumulation at sub-G1 phase at 5 times antiproliferative IC50 after 48 hrs by propidium iodide staining based flow cytometry (reference value: 7.8%)", "format": "functional"}, "[12]": {"system": "JIMT-1", "assay": "Antiproliferative activity against human JIMT1 cells after 72 hrs by SRB assay", "format": "functional, cell-based", "conditions": "JIMT-1, 72 h"}, "[13]": {"assay": "Selectivity index, ratio of IC50 for human MCF10A cells to IC50 for human MCF7 cells", "format": "toxicity", "conditions": "MCF10A cells versus MCF7 cells, read-out: Ratio IC50"}, "[14]": {"assay": "Cell cycle arrest in human ALL5 cells assessed as accumulation at G0/G1 phase at 5 times antiproliferative IC50 after 24 hrs by propidium iodide staining based flow cytometry (reference value: 79.7%)", "format": "functional"}, "[15]": {"assay": "Cell cycle arrest in human ALL5 cells assessed as accumulation at G2/M-phase at 5 times antiproliferative IC50 after 96 hrs by propidium iodide staining based flow cytometry (reference value: 11.1%)", "format": "functional"}, "[16]": {"assay": "Cell cycle arrest in human ALL5 cells assessed as accumulation at G0/G1 phase at 5 times antiproliferative IC50 after 96 hrs by propidium iodide staining based flow cytometry (reference value: 69.8%)", "format": "functional"}, "[17]": {"assay": "Cell cycle arrest in human ALL5 cells assessed as accumulation at G2/M-phase at 5 times antiproliferative IC50 after 48 hrs by propidium iodide staining based flow cytometry (reference value: 13.2%)", "format": "functional"}, "[18]": {"assay": "Cell cycle arrest in human ALL5 cells assessed as accumulation at sub-G1 phase at 5 times antiproliferative IC50 after 24 hrs by propidium iodide staining based flow cytometry (reference value: 6.07%)", "format": "functional"}, "[19]": {"system": "Breast carcinoma cell", "assay": "Ex vivo antitumor activity against patient derived breast cancer tissue assessed as decrease in tumor cell proliferation at 18.5 uM by Ki-67 staining based immunohistochemical analysis", "format": "functional", "conditions": "Homo sapiens, TDE = time-dependent effect"}, "[20]": {"assay": "Selectivity index, ratio of IC50 for human MCF10A cells to IC50 for human LoVo/DX cells", "format": "toxicity", "conditions": "MCF10A cells versus LoVo/DX cells, read-out: Ratio IC50"}, "[21]": {"system": "Breast carcinoma cell", "assay": "Ex vivo antitumor activity against patient derived breast cancer tissue assessed as increase in number of dead tumor cells at 18.5 uM by H and E staining based immunohistochemical analysis", "format": "functional", "conditions": "Homo sapiens, TDE = time-dependent effect"}, "[22]": {"assay": "Selectivity index, ratio of IC50 for human MCF10A cells to IC50 for human LoVo cells", "format": "toxicity", "conditions": "MCF10A cells versus LoVo cells, read-out: Ratio IC50"}, "[23]": {"assay": "Cell cycle arrest in human ALL5 cells assessed as accumulation at G0/G1 phase at 5 times antiproliferative IC50 after 48 hrs by propidium iodide staining based flow cytometry (reference value: 69.6%)", "format": "functional"}, "[24]": {"assay": "Antiproliferative activity against human ALL5 cells after 120 hrs by MTT assay", "format": "functional, cell-based", "conditions": "ALL5, 120 h"}, "[25]": {"assay": "Cell cycle arrest in human ALL5 cells assessed as accumulation at G2/M-phase at 5 times antiproliferative IC50 after 24 hrs by propidium iodide staining based flow cytometry (reference value: 7.98%)", "format": "functional"}, "[26]": {"assay": "Selectivity index, ratio of IC50 for human MCF10A cells to IC50 for human JIMT1 cells", "format": "toxicity", "conditions": "MCF10A cells versus JIMT1 cells, read-out: Ratio IC50"}, "[27]": {"assay": "Selectivity index, ratio of IC50 for human MCF10A cells to IC50 for human SK-BR-3 cells", "format": "toxicity", "conditions": "MCF10A cells versus SK-BR-3 cells, read-out: Ratio IC50"}, "[28]": {"assay": "Antiproliferative activity against human LoVo/DX cells after 72 hrs by SRB assay", "format": "functional, cell-based"}, "[29]": {"system": "LoVo", "assay": "Antiproliferative activity against human LoVo cells after 72 hrs by SRB assay", "format": "functional, cell-based"}, "[30]": {"assay": "Cell cycle arrest in human ALL5 cells assessed as accumulation at S-phase at 5 times antiproliferative IC50 after 24 hrs by propidium iodide staining based flow cytometry (reference value: 6.76%)", "format": "functional"}, "[31]": {"assay": "Resistance index, ratio of IC50 for human LoVo/DX cells to IC50 for human LoVo cells", "format": "functional"}, "[32]": {"assay": "Cell cycle arrest in human ALL5 cells assessed as accumulation at S-phase at 5 times antiproliferative IC50 after 48 hrs by propidium iodide staining based flow cytometry (reference value: 9.82%)", "format": "functional"}, "[33]": {"system": "SK-BR-3", "assay": "Antiproliferative activity against human SK-BR-3 cells after 72 hrs by SRB assay", "format": "functional, cell-based", "conditions": "SK-BR-3, 72 h"}, "[34]": {"system": "MCF-10A", "assay": "Antiproliferative activity against human MCF10A cells after 72 hrs by SRB assay", "format": "cell-based"}}, "note": "pIC50: −log10 of the molar value."}
{"compound": "CCOC(=O)O[C@@H]1C=C[C@]2(O[C@H]([C@@H](CC)C(=O)[C@@H](C)[C@@H](O)[C@H](C)[C@@H]3O[C@@H]([C@@H](CC)C(=O)OCC(F)(F)F)CC[C@@H]3C)[C@@H](C)C[C@H]2C)O[C@@]12CC[C@@](C)([C@H]1CC[C@](O)(CC)[C@H](C)O1)O2", "values": [{"measurement": "Activity", "setting": "[1]", "result": "<= 50%"}, {"measurement": "Activity", "setting": "[2]", "result": "<=50%"}, {"measurement": "Activity", "setting": "[3]", "result": "<=50%"}, {"measurement": "Activity", "setting": "[4]", "result": "<=50%"}, {"measurement": "pIC50", "setting": "[5]", "result": 4.17}, {"measurement": "Activity", "setting": "[6]", "result": "<=50%"}, {"measurement": "Activity", "setting": "[7]", "result": "<=50%"}]}
{"compound": "CC[C@@H](C(=O)[C@@H](C)[C@@H](O)[C@H](C)[C@@H]1O[C@@H]([C@@H](CC)C(=O)NCCc2ccc(F)cc2)CC[C@@H]1C)[C@H]1O[C@]2(C=C[C@@H](OC(C)=O)[C@]3(CC[C@@](C)([C@H]4CC[C@](O)(CC)[C@H](C)O4)O3)O2)[C@H](C)C[C@@H]1C", "values": [{"measurement": "Activity", "setting": "[8]", "result": 1.55, "unit": "%"}, {"measurement": "Activity", "setting": "[9]", "result": 49.3, "unit": "%"}, {"measurement": "selectivity ratio", "setting": "[10]", "result": 24}, {"measurement": "Activity", "setting": "[11]", "result": 27.4, "unit": "%"}, {"measurement": "pIC50", "setting": "[12]", "result": 5.43}, {"measurement": "selectivity ratio", "setting": "[13]", "result": 12}, {"measurement": "Activity", "setting": "[14]", "result": 79.9, "unit": "%"}, {"measurement": "Activity", "setting": "[15]", "result": 1.96, "unit": "%"}, {"measurement": "Activity", "setting": "[16]", "result": 47.3, "unit": "%"}, {"measurement": "Activity", "setting": "[17]", "result": 5.2, "unit": "%"}, {"measurement": "Activity", "setting": "[18]", "result": 11, "unit": "%"}, {"measurement": "Activity", "setting": "[19]", "result": "Tde"}, {"measurement": "selectivity ratio", "setting": "[20]", "result": 12}, {"measurement": "Activity", "setting": "[21]", "result": "Tde"}, {"measurement": "selectivity ratio", "setting": "[22]", "result": 11}, {"measurement": "Activity", "setting": "[23]", "result": 65.6, "unit": "%"}, {"measurement": "pIC50", "setting": "[24]", "result": 5.74}, {"measurement": "Activity", "setting": "[25]", "result": 5.08, "unit": "%"}, {"measurement": "selectivity ratio", "setting": "[26]", "result": 12}, {"measurement": "selectivity ratio", "setting": "[27]", "result": 11}, {"measurement": "pIC50", "setting": "[5]", "result": 5.43}, {"measurement": "pIC50", "setting": "[28]", "result": 5.46}, {"measurement": "pIC50", "setting": "[29]", "result": 5.40}, {"measurement": "Activity", "setting": "[30]", "result": 4.18, "unit": "%"}, {"measurement": "Ratio IC50", "setting": "[31]", "result": 0.88}, {"measurement": "Activity", "setting": "[32]", "result": 2.15, "unit": "%"}, {"measurement": "pIC50", "setting": "[33]", "result": 5.42}, {"measurement": "pIC50", "setting": "[34]", "result": 4.37}]}
